Values of other authors as cited in US20240099995A1, “METHOD OF PREPARING A TOPICAL PHARMACEUTICAL COMPOSITION” (PHEBRA PTY LTD, priority 2021, published 2024).
Like-named read-outs stand apart in the source and are kept apart here.

What was measured:
[1] = not given; remark: listed apart in the source

| concentration loss (4° C. and above, after 2 days) [%] | concentration loss (22° C., within 90 minutes) [%] | time stable (stored in a freezer, acidic and basic conditions) | Structure (SMILES) | duration of topical anesthesia ([1]; with adrenaline) [min] | duration of topical anesthesia ([1]; without adrenalin) [min] |
| --- | --- | --- | --- | --- | --- |
| 100 | 100 | at least 28 days | CNCC(O)c1ccc(O)c(O)c1 (centres unmarked) [adrenaline] |  |  |
|  |  |  | CCN(CC)CC(=O)Nc1c(C)cccc1C [lignocaine] | 120 to 360 | 30 to 60 |
